From US20210115104A1, “AMYLIN ANALOGUES” (Zealand Pharma A/S, priority 2015, published 2021)
*1 amine or outer side, *2 acyl side, *3 side chain or, on linkers, in order; H or OH if unused. Where a SMILES comes first, the peptide text is derived from it. Bridges are numbered along the chain shown (N, C = ends). [ ]: non-standard residue; d: D form. The star is where a group is joined. C20 diacid = O=C(O)CCCCCCCCCCCCCCCCCCC(=O)*; γGlu = O=C(O)[C@H](CCC(=O)[*:2])N[*:1]; Hyp = O=C(O)[C@@H]1C[C@@H](O)CN1; NMeI = CC[C@H](C)[C@H](NC)C(=O)O; Sar = CNCC(=O)O

Assays:
[1] = Pharmacokinetic (PK) profiling in rats; type: in vivo, rat; design: CI/F (apparent clearance values): unit not given here; settings: Sprague Dawley male rats, single sc 30 nmol/kg
Procedure, shortened: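 Male Sprague Dawley rats received a single sc dose of 30 nmol/kg in mannitol-containing histidine buffer (pH 7.0), with tail-vein sampling before dosing and at 24–168 hours. Plasma was ethanol-precipitated and assayed by LC-MS/MS. Non-compartmental analysis of mean concentrations gave t1/2 as ln(2)/λz and CL/F as dose/AUCinf.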

[2] = Assessment of chemical stability (RP-HPLC normalized purity); type: physicochemical; settings: 7 days, 40° C., Table 1
Procedure, shortened: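 Purity after 7 days at 40° C is expressed relative to T=0 (set to 100) for each pH. Samples at 0.2 mg/ml, pH 4, 6, 7.5 or 9, analyzed by RP-HPLC with UV 220 nm on C8 (ammonium formate) or C18 (TFA) gradients.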

[3] = test system: Sprague Dawley rats; assay: Oral glucose tolerance test (OGTT) in rats; type: in vivo, rat; settings: fasted rats, 30 nmol/kg sc 16 hours before oral glucose bolus 2 g/kg
Method: Male Sprague Dawley rats [Crl:CD(SD), weight range 260-280 g upon arrival] were housed in groups of 2 (n=2) or 3 (n=3). The animals were maintained on a 12 h/12 h light/dark cycle. Animals had access ad libitum to a standard chow diet and tap water (domestic quality tap water) during the initial one week acclimatization period.
Fasted rats (fasted for 7 hours) were employed in the test. Rats had previously been randomized into two groups, designated test group and control group, respectively. The total number of animals per group was 10 (n=10).
A single subcutaneous injection of either vehicle (control group; vehicle: 50 mM histidine buffer, pH 7, with 200 mM mannitol) or Compound 7 in vehicle [test group; dose 30 nmol/kg body weight (2 ml/kg)] was subsequently administered to each animal. All rats then received an oral glucose bolus (2 g/kg) 16 hours after vehicle or compound administration. Blood glucose levels in tail blood samples taken 20 min. before glucose administration (time zero, baseline) and then 15 min., 30 min., 60 min., 90 min., 120 min. and 180 min after glucose administration were determined using a glucometer (GlucoSmart Swing™; MSP Bodmann GmbH, Germany).
The data are presented as mean±S.E.M. The two-sided unpaired Student t-test was used for statistical comparison of the test group and the control group.

CC[C@H](C)[C@@H](C(=O)N[C@@H](CC(C)C)C(=O)N[C@@H](CO)C(=O)N[C@@H](CO)C(=O)N[C@H](C(=O)N[C@@H](CCC(=O)O)C(=O)N[C@H](C(=O)NCC(=O)N[C@@H](CO)C(=O)N[C@@H](CC(N)=O)C(=O)N[C@H](C(=O)N1C[C@H](O)C[C@H]1C(N)=O)[C@@H](C)O)C(C)C)[C@@H](C)O)N(C)C(=O)[C@H](C)NC(=O)CN(C)C(=O)[C@H](Cc1ccccc1)NC(=O)[C@H](CO)NC(=O)[C@H](CO)NC(=O)[C@H](CCCNC(=N)N)NC(=O)[C@H](CCC(N)=O)NC(=O)[C@H](CC(C)C)NC(=O)[C@H](Cc1ccccc1)NC(=O)[C@H](Cc1c[nH]cn1)NC(=O)[C@H](C)NC(=O)[C@H](CC(C)C)NC(=O)[C@H](CCCNC(=N)N)NC(=O)[C@H](CCC(=O)O)NC(=O)[C@@H](NC(=O)[C@H](C)NC(=O)[C@@H]1CSSC[C@H](NC(=O)[C@H](CCCNC(=N)N)NC(=O)CC[C@H](NC(=O)CCCCCCCCCCCCCCCCCCC(=O)O)C(=O)O)C(=O)NCC(=O)N[C@@H]([C@@H](C)O)C(=O)N[C@@H](C)C(=O)N[C@@H]([C@@H](C)O)C(=O)N1)[C@@H](C)O [Compound 7, [19CD]-isoGlu-R-C( )-GTAT-C( )-ATERLAHFLQRSSF-Gly(Me)-A-Ile(Me)-LSSTEVGSNT-Hyp-NH2] ({C20 diacid-γGlu}-RCGTATCATERLAHFLQRSSF[Sar]A[NMeI]LSSTEVGSNT[Hyp]-NH2; disulfide 2-7)
CI/F (apparent clearance values) [1]: 0.0087
Normalized purity after 7 days, 40° C., pH 4 ([2]; pH 4, 0.2 mg/ml): A (A = >90%)
Normalized purity after 7 days, 40° C., pH 6 ([2]; pH 6, 0.2 mg/ml): A (A = >90%)
Normalized purity after 7 days, 40° C., pH 7.5 ([2]; pH 7.5, 0.2 mg/ml): A (A = >90%)
Normalized purity after 7 days, 40° C., pH 9 ([2]; pH 9, 0.2 mg/ml): A (A = >90%)
Glucose AUC, t = 15-180 min.; mean ± S.E.M. [3]: 122 ± 29 mmol·min/L
